Experiments:
EGFR L858R/C797S = target: T1, EGFR L858R/C797S (Homo sapiens, UniProt P00533, C797S/L858R); assay: EGFR degradation HTRF assay in BaF3 LC cells; type: cell-based; conditions: BaF3 LC (L858R/C797S), maximum percentage of inhibition (degradation); read-out: BaF3 LC Dmax (%)
T1 construct: expressed in transfected cells; host or cells: BaF3 LC
Procedure: (§1) BaF3-LTC(L858R/T790M/C797S) cells and BaF3 LC(L858R/C797S) cells are treated with compounds diluted in 0.2% DMSO cell culture medium and incubate for 16 h, 37° C., 5% CO2. the final concentration of compounds in all assay is start with 10 uM, 5-fold dilution, total 8 doses were included.
(§2) After 16 h treatment, add HTRF lysis buffer to each well; seal the plate and incubate 1 hour at room temperature on a plate shaker; Once the cells are lysed, 16 μL of cell lysate are transferred to a PE 384-well HTRF detection plate; 4 μL of pre-mixed HTRF antibodies are added to each well; Cover the plate with a plate sealer, spin 1000 rpm for 1 min, Incubate overnight at room temperature; Read on BMG PheraStar with HTRF protocol (337 nm-665 nm-620 nm).
(§3) The inhibition (degradation) percentage of the compound was calculated by the following equation: Inhibition percentage of Compound=100−100×(Signal−low control)/(High control−low control), wherein signal=each test compound group
(§4) High control=Cell group with added DMSO and without compound, indicating microplate readings without EGFR degradation;
(§5) Dmax is the maximum percentage of inhibition (degradation).
(§6) The IC50 (DC50) value of a compound can be obtained by fitting the following equation
(§7) Y=Bottom+(TOP−Bottom)/(1+((IC50/X)^hillslope))
(§8) Wherein, X and Y are known values, and IC50, Hillslope, Top and Bottom are the parameters obtained by fitting with software. Y is the inhibition percentage (calculated from the equation), X is the concentration of the compound; IC50 is the concentration of the compound when the 50% inhibition is reached. The smaller the IC50 value is, the stronger the inhibitory ability of the compound is. Vice versa, the higher the IC50 value is, the weaker the inhibitory ability of the compound is; Hillslope represents the slope of the fitted curve, generally around 1*; Bottom represents the minimum value of the curve obtained by data fitting, which is generally 0%±20%; Top represents the maximum value of the curve obtained by data fitting, which is generally 100%±20%. The experimental data were fitted by calculating and analyzing with Dotmatics data analysis software.

EGFR L858R/T790M/C797S = target: T2, EGFR L858R/T790M/C797S (Homo sapiens, UniProt P00533, C797S/L858R/T790M); assay: EGFR degradation HTRF assay in BaF3-LTC cells; type: cell-based; conditions: BaF3-LTC (L858R/T790M/C797S), maximum percentage of inhibition (degradation); read-out: BaF3-LTC Dmax (%)
T2 construct: expressed in transfected cells; host or cells: BaF3-LTC
T2 sequence (P00533 25-1210 T790M/C797S/L858R): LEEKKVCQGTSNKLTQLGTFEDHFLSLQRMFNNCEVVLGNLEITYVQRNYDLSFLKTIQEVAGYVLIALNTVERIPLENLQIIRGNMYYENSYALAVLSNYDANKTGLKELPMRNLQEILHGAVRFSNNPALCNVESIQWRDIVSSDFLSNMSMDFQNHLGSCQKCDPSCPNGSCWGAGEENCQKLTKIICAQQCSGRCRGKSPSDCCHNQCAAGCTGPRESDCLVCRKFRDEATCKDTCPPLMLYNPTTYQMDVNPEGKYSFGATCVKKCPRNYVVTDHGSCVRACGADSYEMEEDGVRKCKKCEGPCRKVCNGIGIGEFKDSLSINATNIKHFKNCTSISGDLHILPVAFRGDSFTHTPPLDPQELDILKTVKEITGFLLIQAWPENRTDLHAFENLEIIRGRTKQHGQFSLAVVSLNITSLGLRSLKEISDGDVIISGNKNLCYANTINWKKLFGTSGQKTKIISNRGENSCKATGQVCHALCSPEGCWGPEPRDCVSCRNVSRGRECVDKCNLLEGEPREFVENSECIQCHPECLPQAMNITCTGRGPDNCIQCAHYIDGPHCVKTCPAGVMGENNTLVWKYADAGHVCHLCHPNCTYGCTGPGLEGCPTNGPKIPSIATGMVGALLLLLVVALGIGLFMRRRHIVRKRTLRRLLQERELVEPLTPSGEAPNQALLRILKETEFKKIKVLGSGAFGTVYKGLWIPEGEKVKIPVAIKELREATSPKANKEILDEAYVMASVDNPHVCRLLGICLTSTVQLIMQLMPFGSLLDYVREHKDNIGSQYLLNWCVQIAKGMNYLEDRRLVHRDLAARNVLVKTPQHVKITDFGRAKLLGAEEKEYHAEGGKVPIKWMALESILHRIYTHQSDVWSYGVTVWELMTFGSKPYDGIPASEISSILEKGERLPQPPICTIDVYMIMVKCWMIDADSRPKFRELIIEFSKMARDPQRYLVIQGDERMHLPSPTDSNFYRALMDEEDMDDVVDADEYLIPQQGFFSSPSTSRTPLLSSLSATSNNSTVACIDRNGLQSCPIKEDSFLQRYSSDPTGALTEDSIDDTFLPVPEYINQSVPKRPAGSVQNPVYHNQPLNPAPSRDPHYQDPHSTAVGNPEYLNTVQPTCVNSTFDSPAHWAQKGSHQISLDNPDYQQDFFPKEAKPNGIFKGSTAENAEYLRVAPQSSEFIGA
Procedure: as §1, §2, §3, §4, §5, §6, §7, §8

T1 sequence (P00533 25-1210 C797S/L858R): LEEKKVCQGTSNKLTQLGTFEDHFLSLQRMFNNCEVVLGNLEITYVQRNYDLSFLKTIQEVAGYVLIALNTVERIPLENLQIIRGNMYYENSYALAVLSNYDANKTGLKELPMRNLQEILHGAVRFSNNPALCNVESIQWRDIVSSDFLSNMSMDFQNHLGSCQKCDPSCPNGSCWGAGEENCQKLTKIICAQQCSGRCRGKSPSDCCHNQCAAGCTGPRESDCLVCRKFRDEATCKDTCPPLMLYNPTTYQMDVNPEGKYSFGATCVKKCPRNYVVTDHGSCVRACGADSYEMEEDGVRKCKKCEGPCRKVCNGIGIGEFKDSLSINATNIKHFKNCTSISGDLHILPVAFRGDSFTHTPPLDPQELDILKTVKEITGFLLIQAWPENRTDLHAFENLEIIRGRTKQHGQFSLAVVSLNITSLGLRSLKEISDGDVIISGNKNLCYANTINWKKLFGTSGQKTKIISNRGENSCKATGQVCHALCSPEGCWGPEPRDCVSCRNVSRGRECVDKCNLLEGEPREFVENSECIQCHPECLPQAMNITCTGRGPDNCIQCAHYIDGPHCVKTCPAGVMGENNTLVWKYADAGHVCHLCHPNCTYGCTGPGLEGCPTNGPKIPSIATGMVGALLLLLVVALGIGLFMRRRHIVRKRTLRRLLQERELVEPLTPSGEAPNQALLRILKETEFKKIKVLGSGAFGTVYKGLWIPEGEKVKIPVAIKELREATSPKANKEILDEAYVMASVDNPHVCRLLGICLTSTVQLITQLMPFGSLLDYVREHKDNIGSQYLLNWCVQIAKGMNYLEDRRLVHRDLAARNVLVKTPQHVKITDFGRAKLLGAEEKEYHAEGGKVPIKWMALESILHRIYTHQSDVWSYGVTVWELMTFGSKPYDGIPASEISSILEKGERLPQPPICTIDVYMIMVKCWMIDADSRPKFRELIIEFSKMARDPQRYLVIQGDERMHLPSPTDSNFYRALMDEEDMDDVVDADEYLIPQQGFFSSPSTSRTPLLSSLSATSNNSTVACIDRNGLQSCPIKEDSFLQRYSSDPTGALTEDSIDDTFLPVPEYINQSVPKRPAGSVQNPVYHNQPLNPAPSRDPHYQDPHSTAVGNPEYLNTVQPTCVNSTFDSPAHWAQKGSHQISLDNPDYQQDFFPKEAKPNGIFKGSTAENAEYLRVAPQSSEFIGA

Structure (SMILES) | Dmax (EGFR L858R/C797S) | Dmax (EGFR L858R/T790M/C797S)
CCOc1cc(N2CCC(N3CCN(CCc4cc(F)c([C@H]5CCC(=O)NC5=O)c(F)c4)CC3)CC2)c(CC)cc1Nc1ncc(Br)c(Nc2ccc3nc(CC)ncc3c2P(C)(C)=O)n1 [Example 460, (R)-3-(4-(2-(4-(1-(4-((5-bromo-4-((5-(dimethylphosphoryl)-2-ethylquinazolin-6-yl)amino)pyrimidin-2-yl)amino)-5-ethoxy-2-ethylphenyl)piperidin-4-yl)piperazin-1-yl)ethyl)-2,6-difluorophenyl)piperidine-2,6-dione] | 88.2% | 82.5%
CCOc1cc(N2CCC(N3CCN(CCc4cc(F)cc5c4n(C)c(=O)n5C4CCC(=O)NC4=O)CC3)CC2)c(CC)cc1Nc1ncc(Br)c(Nc2ccc3nc(CC)ccc3c2P(C)(C)=O)n1 (stereo not drawn) [Example 462, 3-(4-(2-(4-(1-(4-((5-bromo-4-((5-(dimethylphosphoryl)-2-ethylquinolin-6-yl)amino)pyrimidin-2-yl)amino)-5-ethoxy-2-ethylphenyl)piperidin-4-yl)piperazin-1-yl)ethyl)-6-fluoro-3-methyl-2-oxo-2,3-dihydro-1H-benzo[d]imidazol-1-yl)piperidine-2,6-dione] | 89.9% | 84.5%
CCOc1cc(N2CCC(N3CCN(CCc4cccc5c4oc(=O)n5C4CCC(=O)NC4=O)CC3)CC2)c(CC)cc1Nc1ncc(Br)c(Nc2ccc3nc(CC)ccc3c2P(C)(C)=O)n1 (stereo not drawn) [Example 473, 3-(7-(2-(4-(1-(4-((5-bromo-4-((5-(dimethylphosphoryl)-2-ethylquinolin-6-yl)amino)pyrimidin-2-yl)amino)-5-ethoxy-2-ethylphenyl)piperidin-4-yl)piperazin-1-yl)ethyl)-2-oxobenzo[d]oxazol-3(2H)-yl)piperidine-2,6-dione] | 85.5% | 94.6%
CCOc1cc(N2CCC(N3CCN(CCc4cc(F)c([C@H]5CCC(=O)NC5=O)c(F)c4)CC3)CC2)c(CC)cc1Nc1ncc(Br)c(Nc2ccc3nc(C)ncc3c2P(C)(C)=O)n1 [Example 738, (R)-3-(4-(2-(4-(1-(4-((5-bromo-4-((5-(dimethylphosphoryl)-2-methylquinazolin-6-yl)amino)pyrimidin-2-yl)amino)-5-ethoxy-2-ethylphenyl)piperidin-4-yl)piperazin-1-yl)ethyl)-2,6-difluorophenyl)piperidine-2,6-dione] |  | 95.7%
CCc1cc(Nc2ncc(Br)c(Nc3ccc4nc(C)ncc4c3P(C)(C)=O)n2)c(OC)cc1N1CCC(N2CCN(CCc3cc(F)c([C@H]4CCC(=O)NC4=O)c(F)c3)CC2)CC1 [Example 739, (R)-3-(4-(2-(4-(1-(4-((5-bromo-4-((5-(dimethylphosphoryl)-2-methylquinazolin-6-yl)amino)pyrimidin-2-yl)amino)-2-ethyl-5-methoxyphenyl)piperidin-4-yl)piperazin-1-yl)ethyl)-2,6-difluorophenyl)piperidine-2,6-dione] |  | 95.7%
CCc1cc(Nc2ncc(Br)c(Nc3ccc4nc(C)ncc4c3P(C)(C)=O)n2)c(OC)cc1N1CCC(N2CCN(C(=O)[C@H]3CN(c4cc(F)c([C@H]5CCC(=O)NC5=O)c(F)c4)CC3(C)C)CC2)CC1 [Example 740, (R)-3-(4-((R)-4-(4-(1-(4-((5-bromo-4-((5-(dimethylphosphoryl)-2-methylquinazolin-6-yl)amino)pyrimidin-2-yl)amino)-2-ethyl-5-methoxyphenyl)piperidin-4-yl)piperazine-1-carbonyl)-3,3-dimethylpyrrolidin-1-yl)-2,6-difluorophenyl)piperidine-2,6-dione] |  | 97.2%
CCc1cc(Nc2ncc(Br)c(Nc3ccc4nc(C5CC5)ccc4c3P(C)(C)=O)n2)c(OC)cc1N1CCC(N2CCN(CCc3cc(F)c([C@H]4CCC(=O)NC4=O)c(F)c3)CC2)CC1 [Example 741, (R)-3-(4-(2-(4-(1-(4-((5-bromo-4-((2-cyclopropyl-5-(dimethylphosphoryl)quinolin-6-yl)amino)pyrimidin-2-yl)amino)-2-ethyl-5-methoxyphenyl)piperidin-4-yl)piperazin-1-yl)ethyl)-2,6-difluorophenyl)piperidine-2,6-dione] |  | 96.6%
CCOc1cc(N2CCC(N3CCN(CCc4cc(F)c(F)c5c4n(CC)c(=O)n5C4CCC(=O)NC4=O)CC3)CC2)c(CC)cc1Nc1ncc(Br)c(Nc2ccc3nc(CC)ccc3c2P(C)(C)=O)n1 (stereo not drawn) [Example 742, 3-(4-(2-(4-(1-(4-((5-bromo-4-((5-(dimethylphosphoryl)-2-ethylquinolin-6-yl)amino)pyrimidin-2-yl)amino)-5-ethoxy-2-ethylphenyl)piperidin-4-yl)piperazin-1-yl)ethyl)-3-ethyl-6,7-difluoro-2-oxo-2,3-dihydro-1H-benzo[d]imidazol-1-yl)piperidine-2,6-dione] |  | 78.1%
CCc1ccc2c(P(C)(C)=O)c(Nc3nc(Nc4cc(CC)c(N5CCC(N6CCN(CCc7cc(F)c([C@H]8CCC(=O)NC8=O)c(F)c7)CC6)CC5)cc4OC)ncc3Cl)ccc2n1 [Example 744, (R)-3-(4-(2-(4-(1-(4-((5-chloro-4-((5-(dimethylphosphoryl)-2-ethylquinolin-6-yl)amino)pyrimidin-2-yl)amino)-2-ethyl-5-methoxyphenyl)piperidin-4-yl)piperazin-1-yl)ethyl)-2,6-difluorophenyl)piperidine-2,6-dione] |  | 92.3%
CCc1ccc2c(P(C)(C)=O)c(Nc3nc(Nc4cc(CC)c(N5CCC(C6CCN(CCc7cc(F)c([C@H]8CCC(=O)NC8=O)c(F)c7)CC6)CC5)cc4OC)ncc3Br)ccc2n1 [Example 745, (R)-3-(4-(2-(1′-(4-((5-bromo-4-((5-(dimethylphosphoryl)-2-ethylquinolin-6-yl)amino)pyrimidin-2-yl)amino)-2-ethyl-5-methoxyphenyl)-[4,4′-bipiperidin]-1-yl)ethyl)-2,6-difluorophenyl)piperidine-2,6-dione] |  | 88.7%
CCOc1cc(N2CCC(N3CCN(C(=O)[C@H]4CN(c5cc(F)c([C@H]6CCC(=O)NC6=O)c(F)c5)CC4(C)C)CC3)CC2)c(CC)cc1Nc1ncc(Br)c(Nc2cc(F)c3nc(CC)ccc3c2P(C)(C)=O)n1 [Example 746, (R)-3-(4-((R)-4-(4-(1-(4-((5-bromo-4-((5-(dimethylphosphoryl)-2-ethyl-8-fluoroquinolin-6-yl)amino)pyrimidin-2-yl)amino)-5-ethoxy-2-ethylphenyl)piperidin-4-yl)piperazine-1-carbonyl)-3,3-dimethylpyrrolidin-1-yl)-2,6-difluorophenyl)piperidine-2,6-dione] |  | 95.5%
CCOc1cc(N2CCC(N3CCN(C(=O)[C@H]4CN(c5cc(F)c([C@H]6CCC(=O)NC6=O)c(F)c5)CC4(C)C)CC3)CC2)c(CC)cc1Nc1ncc(Br)c(Nc2ccc3nc(C)ccc3c2P(C)(C)=O)n1 [Example 747, (R)-3-(4-((R)-4-(4-(1-(4-((5-bromo-4-((5-(dimethylphosphoryl)-2-methylquinolin-6-yl)amino)pyrimidin-2-yl)amino)-5-ethoxy-2-ethylphenyl)piperidin-4-yl)piperazine-1-carbonyl)-3,3-dimethylpyrrolidin-1-yl)-2,6-difluorophenyl)piperidine-2,6-dione] |  | 96.2%
CCc1ncc2c(P(C)(C)=O)c(Nc3nc(Nc4cc(C)c(N5CCC(N6CCN(CCc7cc(F)c([C@H]8CCC(=O)NC8=O)c(F)c7)CC6)CC5)cc4OC)ncc3Br)ccc2n1 [Example 748, (R)-3-(4-(2-(4-(1-(4-((5-bromo-4-((5-(dimethylphosphoryl)-2-ethylquinazolin-6-yl)amino)pyrimidin-2-yl)amino)-5-methoxy-2-methylphenyl)piperidin-4-yl)piperazin-1-yl)ethyl)-2,6-difluorophenyl)piperidine-2,6-dione] |  | 93.6%
CCOc1cc(N2CCC(N3CCN(CCc4cc(F)c([C@H]5CCC(=O)NC5=O)c(F)c4)CC3)CC2)c(CC)cc1Nc1nccc(Nc2ccc3nc(CC)ncc3c2P(C)(C)=O)n1 [Example 749, (R)-3-(4-(2-(4-(1-(4-((4-((5-(dimethylphosphoryl)-2-ethylquinazolin-6-yl)amino)pyrimidin-2-yl)amino)-5-ethoxy-2-ethylphenyl)piperidin-4-yl)piperazin-1-yl)ethyl)-2,6-difluorophenyl)piperidine-2,6-dione] |  | 35.9%
CCc1cc(Nc2ncc(Br)c(Nc3ccc4nccnc4c3P(C)(C)=O)n2)c(OC)cc1N1CCC(N2CCN(CCc3cc(F)c([C@H]4CCC(=O)NC4=O)c(F)c3)CC2)CC1 [Example 751, (R)-3-(4-(2-(4-(1-(4-((5-bromo-4-((5-(dimethylphosphoryl)quinoxalin-6-yl)amino)pyrimidin-2-yl)amino)-2-ethyl-5-methoxyphenyl)piperidin-4-yl)piperazin-1-yl)ethyl)-2,6-difluorophenyl)piperidine-2,6-dione] |  | 94.6%
